Assay results published in patent US20240150377A1, “MODULATORS OF CYSTIC FIBROSIS TRANSMEMBRANE CONDUCTANCE REGULATOR” (VERTEX PHARMACEUTICALS INCORPORATED, priority 2020, published 2024).
Like-named read-outs stand apart in the source and are kept apart here.

Tests used:
CFTR = CFTR (Homo sapiens, UniProt P13569); test: Membrane potential dye, Enteroid Assay A; format: cell-based; settings: for Ent. A Max Activity: chloride transport as % of triple combination control (Enteroid Assay A); for EC50: human enteroid cells, 18-24 hours, acute 10 μM forskolin and 300 nM ivacaftor, read-out: Ent. A EC50
Outline: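 Human intestinal enteroids incubated 18-24 h at 37 °C with test compound, then loaded with 20 μM methyl oxonol (with CaCC inhibitors). Chloride transport triggered in chloride-free buffer with 10 μM forskolin, 100 μM IBMX, 300 nM Compound III; fluorescence read 15 min, expressed as % of a triple-combination corrector/potentiator control.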

F508del = molecular target: T1, F508del (Homo sapiens, UniProt P13569, DEL508-508); test: 3T3 assay: membrane potential optical assay for F508del correction; format: cell-based; settings: F508del NIH 3T3 cells; for Emax: NIH3T3, compared to lumacaftor in combination with acutely added 300 nM Ivacaftor, read-out: 3T3 Max Activity; for EC50: 18-24 hours at 37° C., forskolin, acutely added 300 nM Ivacaftor
T1 construct: expressed in transfected cells
Source text: 1. Membrane Potential Optical Methods for Assaying F508del Modulation Properties of Compounds
The assay utilizes fluorescent voltage sensing dyes to measure changes in membrane potential using a fluorescent plate reader (e.g., FLIPR III, Molecular Devices, Inc.) as a readout for increase in functional F508del in NIH 3T3 cells. The driving force for the response is the creation of a chloride ion gradient in conjunction with channel activation by a single liquid addition step after the cells have previously been treated with compounds and subsequently loaded with a voltage sensing dye.
2. Identification of Corrector Compounds
To identify correctors of F508del, a single-addition HTS assay format was developed. This HTS assay utilizes fluorescent voltage sensing dyes to measure changes in membrane potential on the FLIPR III as a measurement for increase in gating (conductance) of F508del in F508del NIH 3T3 cells. The F508del NIH 3T3 cell cultures were incubated with the corrector compounds at a range of concentrations for 18-24 hours at 37° C., and subsequently loaded with a redistribution dye. The driving force for the response is a Cl^− ion gradient in conjunction with channel activation with forskolin in a single liquid addition step using a fluorescent plate reader such as FLIPR III.
Bath Solution #1: (in mM) NaCl 160, KCl 4.5, CaCl2) 2, MgCl2 1, HEPES 10, pH 7.4 with NaOH.
Chloride-free bath solution: Chloride salts in Bath Solution #1 (above) are substituted with gluconate salts.
NIH3T3 mouse fibroblasts stably expressing F508del are used for optical measurements of membrane potential. The cells are maintained at 37° C. in 5% CO2 and 90% humidity in Dulbecco's modified Eagle's medium supplemented with 2 mM glutamine, 10% fetal bovine serum, 1× NEAA, b-ME, 1×pen/strep, and 25 mM HEPES in 175 cm^2 culture flasks. For all optical assays, the cells were seeded at ˜20,000/well in 384-well Matrigel-coated plates. For the correction assays, the cells are cultured at 37° C. with and without compounds for 16-24 hours.

T1 sequence (P13569 with tags, fused parts or gaps DEL508-508): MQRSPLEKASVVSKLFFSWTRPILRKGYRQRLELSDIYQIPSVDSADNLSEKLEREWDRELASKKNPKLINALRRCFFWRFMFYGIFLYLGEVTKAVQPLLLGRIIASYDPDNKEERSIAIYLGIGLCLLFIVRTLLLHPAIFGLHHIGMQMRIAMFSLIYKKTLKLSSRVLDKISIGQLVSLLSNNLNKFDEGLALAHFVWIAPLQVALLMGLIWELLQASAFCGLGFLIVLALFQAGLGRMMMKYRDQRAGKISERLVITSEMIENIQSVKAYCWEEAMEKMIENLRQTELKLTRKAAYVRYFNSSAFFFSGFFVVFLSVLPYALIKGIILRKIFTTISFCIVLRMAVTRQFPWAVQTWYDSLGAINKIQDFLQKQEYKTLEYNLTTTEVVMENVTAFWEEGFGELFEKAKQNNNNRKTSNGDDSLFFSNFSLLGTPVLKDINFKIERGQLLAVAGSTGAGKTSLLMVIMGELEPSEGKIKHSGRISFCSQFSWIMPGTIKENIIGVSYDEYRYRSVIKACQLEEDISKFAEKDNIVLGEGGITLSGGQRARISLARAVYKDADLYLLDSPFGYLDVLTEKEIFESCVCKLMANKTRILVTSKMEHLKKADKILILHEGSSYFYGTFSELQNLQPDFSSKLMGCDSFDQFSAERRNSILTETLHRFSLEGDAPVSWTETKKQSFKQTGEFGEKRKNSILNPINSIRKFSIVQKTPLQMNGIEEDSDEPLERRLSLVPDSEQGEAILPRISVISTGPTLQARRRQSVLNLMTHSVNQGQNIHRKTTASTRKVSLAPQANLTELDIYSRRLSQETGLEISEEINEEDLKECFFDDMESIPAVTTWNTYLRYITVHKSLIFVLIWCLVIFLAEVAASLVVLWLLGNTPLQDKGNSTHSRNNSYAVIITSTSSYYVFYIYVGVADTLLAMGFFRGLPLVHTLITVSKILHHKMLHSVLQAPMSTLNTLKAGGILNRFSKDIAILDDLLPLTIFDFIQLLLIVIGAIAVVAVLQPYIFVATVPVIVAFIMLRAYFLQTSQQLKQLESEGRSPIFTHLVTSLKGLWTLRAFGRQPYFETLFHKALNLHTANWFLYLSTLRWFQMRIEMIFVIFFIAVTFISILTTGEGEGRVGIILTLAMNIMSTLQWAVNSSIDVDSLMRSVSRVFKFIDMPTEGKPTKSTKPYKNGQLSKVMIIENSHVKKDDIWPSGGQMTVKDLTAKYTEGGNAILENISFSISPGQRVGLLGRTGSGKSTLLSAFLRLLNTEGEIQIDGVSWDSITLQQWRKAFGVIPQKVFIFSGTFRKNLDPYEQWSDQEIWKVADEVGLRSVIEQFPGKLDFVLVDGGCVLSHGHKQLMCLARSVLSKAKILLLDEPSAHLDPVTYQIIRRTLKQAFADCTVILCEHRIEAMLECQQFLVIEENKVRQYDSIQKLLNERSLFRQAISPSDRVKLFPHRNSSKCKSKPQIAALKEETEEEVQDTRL
Sequence of CFTR (P13569 with tags, fused parts or gaps DEL508-508): as above

Ent. A Max Activity (CFTR; Table 7) | EC50 (CFTR; Table 7) [nM] | Emax (F508del; Table 7) [%] | EC50 (F508del; Table 7) [nM] | Ent. A Max Activity (CFTR; Table 6) | EC50 (CFTR; Table 6) [nM] | Emax (F508del; Table 6) [%] | EC50 (F508del; Table 6) [nM] | SMILES
+++ (+++ is >60%) | < 1000 | > 60 | < 1000 | – | – | – | – | Cc1cccc(C)c1-c1cc2nc(n1)NS(=O)(=O)c1cccc(c1)C(=O)N(C)C[C@H](c1ccc(C(C)(C)C)cc1)O2 (single isomer, unassigned) [Compound 11, 10-(4-tert-Butylphenyl)-6-(2,6-dimethylphenyl)-12-methyl-2,2-dioxo-9-oxa-2λ^6-thia-3,5,12,19-tetrazatricyclo[12.3.1.14,8]nonadeca-1(18),4(19),5,7,14,16-hexaen-13-one]
– | – | – | – | ++ (++ is 30-60%) | < 1000 | > 60 | < 1000 | Cc1cccc(C)c1-c1cc2nc(n1)NS(=O)(=O)c1cccc(c1)C(=O)N(C)[C@H](C)[C@@H](c1ccc(C(C)(C)C)cc1)O2 [Compound 339]
– | – | – | – | +++ (+++ is >60%) | < 1000 | > 60 | < 1000 | Cc1cccc(C)c1-c1cc2nc(n1)NS(=O)(=O)c1cccc(c1)C(=O)N(Cc1ccccc1)CC(c1ccccc1)O2 (stereo in doubt) [Compound 18, (10R)-12-Benzyl-6-(2,6-dimethylphenyl)-2,2-dioxo-10-phenyl-9-oxa-2λ^6-thia-3,5,12,19-tetrazatricyclo[12.3.1.14,8]nonadeca-1(18),4(19),5,7,14,16-hexaen-13-one]
– | – | – | – | +++ (+++ is >60%) | < 1000 | > 60 | < 1000 | Cc1cccc(C)c1-c1cc2nc(n1)NS(=O)(=O)c1cccc(c1)CN(CCC(C)(C)C)[C@H](CC(C)C)CO2 [Compound 1043]
+ (+ is <30%) | 1000 to 3000 | > 60 | < 1000 | – | – | – | – | Cc1cccc(C)c1-c1cc2nc(n1)NS(=O)(=O)c1cccc(c1)C(=O)N(C)C[C@@H](c1ccc(C(C)(C)C)cn1)O2 (single isomer, unassigned) [Compound 102, 10-(5-tert-butyl-2-pyridyl)-6-(2,6-dimethylphenyl)-12-methyl-2,2-dioxo-9-oxa-2λ^6-thia-3,5,12,19-tetrazatricyclo[12.3.1.14,8]nonadeca-1(18),4(19),5,7,14,16-hexaen-13-one]
– | – | – | – | +++ (+++ is >60%) | < 1000 | > 60 | < 1000 | COc1ccc(CN2C(=O)c3cccc(c3)S(=O)(=O)Nc3nc(cc(-c4c(C)cccc4C)n3)OC[C@H]2CC(C)C)cc1 [Compound 347]
– | – | – | – | +++ (+++ is >60%) | < 1000 | > 60 | < 1000 | Cc1cccc(C)c1-c1cc2nc(n1)NS(=O)(=O)c1cccc(c1)C(=O)N(CCCC1CCOCC1)[C@H](CC(C)C)CO2 [Compound 353]
++ (++ is 30-60%) | < 1000 | > 60 | < 1000 | – | – | – | – | Cc1cccc(C)c1-c1cc2nc(n1)NS(=O)(=O)c1cccc(c1)CN(CCC1(C(F)(F)F)CC1)[C@H](CC(C)C)CO2 [Compound 1024]
– | – | – | – | +++ (+++ is >60%) | < 1000 | > 60 | < 1000 | Cc1cccc(C)c1-c1cc2nc(n1)NS(=O)(=O)c1cccc(c1)C(=O)N(C)[C@H](CC(C)C)CO2 [Compound 71, (11R)-6-(2,6-Dimethylphenyl)-12-methyl-11-(2-methylpropyl)-9-oxa-2λ^6-thia-3,5,12,19-tetraazatricyclo[12.3.1.14,8]nonadeca-1(18),4(19),5,7,14,16-hexaene-2,2,13-trione]
+++ (+++ is >60%) | < 1000 | > 60 | < 1000 | – | – | – | – | Cc1cccc(C)c1-c1cc2nc(n1)NS(=O)(=O)c1cccc(c1)CN(Cc1ccnnc1)[C@H](CC(C)C)CO2 [Compound 47, (11R)-6-(2,6-dimethylphenyl)-11-(2-methylpropyl)-12-[(pyridazin-4-yl)methyl]-9-oxa-2λ^6-thia-3,5,12,19-tetraazatricyclo[12.3.1.14,8]nonadeca-1(17),4,6,8(19),14(18),15-hexaene-2,2-dione]
+++ (+++ is >60%) | < 1000 | > 60 | < 1000 | – | – | – | – | CC(=O)N1CCC(CCN2C(=O)c3cccc(c3)S(=O)(=O)Nc3nc(cc(-c4c(C)cccc4C)n3)OC[C@H]2CC(C)C)CC1 [Compound 1107]
– | – | – | – | +++ (+++ is >60%) | < 1000 | > 60 | < 1000 | CCCCCN1C(=O)c2cccc(c2)S(=O)(=O)Nc2nc(cc(-c3c(C)cccc3C)n2)OC[C@H]1CC(C)C [Compound 362]
– | – | – | – | +++ (+++ is >60%) | 3000 to 30000 | > 60 | < 1000 | Cc1cccc(C)c1-c1cc2nc(n1)NS(=O)(=O)c1cccc(c1)NC(=O)CN(C(=O)OC(C)(C)C)CCO2 [Compound 516]
+++ (+++ is >60%) | < 1000 | > 60 | < 1000 | – | – | – | – | Cc1cccc(C)c1-c1cc2nc(n1)NS(=O)(=O)c1cccc(c1)CN(Cc1cnn(-c3ccccc3)c1C)[C@H](CC(C)C)CO2 [Compound 1026]
– | – | – | – | +++ (+++ is >60%) | < 1000 | > 60 | < 1000 | Cc1cccc(C)c1-c1cc2nc(n1)NS(=O)(=O)c1cccc(c1)C(=O)N(CCC(C)C)[C@H](CCC1(C(F)(F)F)CC1)CO2 [Compound 850]
++ (++ is 30-60%) | < 1000 | > 60 | < 1000 | – | – | – | – | Cc1cccc(C)c1-c1cc2nc(n1)NS(=O)(=O)c1cccc(c1)C(=O)N(C)C[C@H](c1ccc(C3CC3)cc1)O2 [Compound 669]
– | – | – | – | +++ (+++ is >60%) | < 1000 | > 60 | < 1000 | Cc1cccc(C)c1-c1cc2nc(n1)NS(=O)(=O)c1cccc(c1)C(=O)N(CCC1CCOCC1)[C@H](CCC1(C(F)(F)F)CC1)CO2 (single isomer, unassigned) [Compound 72, 6-(2,6-Dimethylphenyl)-2,2-dioxo-12-(2-tetrahydropyran-4-ylethyl)-11-[2-[1-(trifluoromethyl)cyclopropyl]ethyl]-9-oxa-2λ^6-thia-3,5,12,19-tetrazatricyclo[12.3.1.14,8]nonadeca-1(18),4(19),5,7,14,16-hexaen-13-one]
+++ (+++ is >60%) | < 1000 | > 60 | < 1000 | – | – | – | – | Cc1cccc(C)c1-c1cc2nc(n1)NS(=O)(=O)c1cccc(c1)C(=O)N(CCC1CCN(C(C)C)CC1)[C@H](CC(C)C)CO2 [Compound 85, (11R)-6-(2,6-Dimethylphenyl)-11-isobutyl-12-[2-(1-isopropyl-4-piperidyl)ethyl]-2,2-dioxo-9-oxa-2λ^6-thia-3,5,12,19-tetrazatricyclo[12.3.1.14,8]nonadeca-1(18),4(19),5,7,14,16-hexaen-13-one]
– | – | – | – | +++ (+++ is >60%) | < 1000 | > 60 | < 1000 | Cc1cccc(C)c1-c1cc2nc(n1)NS(=O)(=O)c1cccc(c1)C(=O)N(CC(C)C)[C@H](CC(C)C)CO2 [Compound 865]
